Reference: patent publication US9826759B2, “Avenanthramide-enriched oat product” (THE QUAKER OATS COMPANY, priority 2014, dated 2017)

Legend:
[1] = Oxygen Radical Absorbance Capacity (ORAC) assay, antioxidant activity; format: biochemical; conditions: individual avenanthramides
Description: To test the effect of varying avenanthramide ratios on antioxidant activity and inflammation in vitro, the inventors created an avenanthramide ingredient from pure avenanthramides which had similar ratios of avenanthramides 2c:2p:2f as was present in each of the three different oat fractions: hulls, flour, and trichomes. Thereafter, antioxidant activity was measured using the ORAC assay and anti-inflammatory effect was measured using an NF-κB inhibitory assay.
The first avenanthramide ingredient was created from 2c:2p:2f having a ratio of about 1:1:1, which corresponded to the concentration present in oat hulls. The second avenanthramide ingredient had avenanthramides 2c:2p:2f having a ratio of about 1:1:2, which corresponded to the concentration present in oat flour. Finally, the last avenanthramide ingredient tested had 2c:2p:2f in a ratio of about 1:2:2, which corresponded to the concentration present in oat trichomes. An ORAC assay was used to measure the antioxidant activity of each of these avenanthramide ingredients and the results are presented in Table 1.

[2] = Peterson et al., 2001; cited from earlier work

SMILES | ORAC [1] | antioxidant activity in vitro [2]
O=C(/C=C/c1ccc(O)c(O)c1)Nc1ccc(O)cc1C(=O)O [Avenanthramide 2c, avenanthramide 2c] | 33741.00 A* TE/g | highest antioxidant activity
O=C(/C=C/c1ccc(O)cc1)Nc1ccc(O)cc1C(=O)O [Avenanthramide 2p, avenanthramide 2p] | 18504.33 B TE/g | –
COc1cc(/C=C/C(=O)Nc2ccc(O)cc2C(=O)O)ccc1O [Avenanthramide 2f, avenanthramide 2f] | 21812.67 B TE/g | –
